Results: publication PMC6021032, “Antimycobacterial activity of nitrogen heterocycles derivatives: 7-(pyridine-4-yl)-indolizine derivatives. Part VII^8–12” (Journal of Enzyme Inhibition and Medicinal Chemistry, 2017)

How the values were obtained:
[1] = test system: Mtb H37Rv; assay: LORA parallel plates, oxygen-deprived bacteria incubated under aerobic conditions (normal oxygen); type: cell-based, Mycobacterium tuberculosis
[2] = test system: THP-1 cell line infected with Mtb; assay: Intracellular activity assay, luminescence; type: cell-based, Mycobacterium tuberculosis; details: Mtb-infected THP-1 cells, 72 h
Experimental: Since the overall efficacy of any anti TB drug will be improved by its ability to traffic into the macrophage phagosome containing replicating bacteria, we evaluated the intracellular activity of compounds[24]. This was measured by using THP-1 cell line infected with Mtb. Infected cells were exposed to compounds for 72 h and viable bacterial counts were measured using luminescence as a measure of intracellular growth.
Assay (Promega) which uses ATP as an indicator of cell viability. Relative luminescent units (RLU) were measured using a Biotek Synergy 4 plate reader. The dose response curve was fitted using the Levenberg–Marquardt algorithm. The IC50 was defined as the compound […]
Intracellular Activity Assay
The activity of compounds against intracellular bacteria was determined by measuring viability in infected THP-1 cell after 3 days in the presence of test compounds. Compounds were prepared as 10-point three-fold serial dilutions in DMSO. The highest concentration of […]
THP-1 cells were cultured in complete RPMI and differentiated into macrophage-like cells using 80 nM PMA overnight at 37°C, 5% CO2. THP-1 cells were infected with a luminescent strain of H37Rv (which constitutively expresses luxABCDE) at a multiplicity of infection of 1 and incubated overnight at 37°C, 5% CO2. Infected cells were recovered using Accutase/EDTA solution, washed twice with PBS to remove extracellular bacteria and seeded into assay pates. Compound dilutions were added to a final DMSO concentration of 0.5%.
Assay plates were incubated for 72 h at 37°C, 5% CO2. Each run included isoniazid as a control. Relative luminescent units (RLU) were measured using a Biotek Synergy 2 plate reader. The dose response curve was fitted using the Levenberg–Marquardt algorithm. The […]
inhibition of growth respectively.
3. Cycle 3 – Absorption, distribution, metabolism, excretion and toxicity (ADMET)
3.1. Plasma Protein Binding Assay
Compounds were added to human plasma at a fixed concentration of 5 µM. The mixture was dialyzed in a RED device (Rapid Equilibrium Dialysis, Pierce) against PBS and incubated on an orbital shaker for 4 h at 37 °C. Aliquots from plasma and PBS sides were collected; an equal volume of PBS was added to the plasma sample, and an equal volume of plasma was added to the PBS sample. Three volumes of methanol (containing the internal binding standard propranolol) was added to precipitate the proteins and release the compound.
Each compound was tested in duplicate. Samples were centrifuged, the supernatant was […]

[3] = test system: M. tuberculosis H37Rv; assay: Cycle 2 repeat of MIC, IC50, IC90 under aerobic conditions (lower starting concentrations); type: cell-based, Mycobacterium tuberculosis; details: revaluation
[4] = test system: Mycobacterium avium; assay: MIC against nontuberculous mycobacteria (Alamar blue); type: cell-based; details: M. avium
[5] = test system: Mycobacterium abscessus; assay: MIC, IC50, IC90 against nontuberculous mycobacteria (OD590); type: cell-based; details: M. abscessus
[6] = test system: THP-1 human monocytic cell line; assay: Cytotoxicity, THP-1 cell viability (CellTiter-Glo); details: read-out: Cytotoxicity IC50; THP-1 cells, 50% loss in viability, 3 days
[7] = test system: Mycobacterium tuberculosis H37Rv; assay: Primary screen (Cycle 1): MIC, IC50, IC90 under aerobic conditions; type: cell-based
[8] = in vitro; details: human
[9] = M. tuberculosis H37Rv, aerobic conditions, primary screen

4-[3-(4-Chlorophenyl)-1-(ethoxycarbonyl)indolizine-7-yl)-1-(2-(4-methoxyphenyl)-2-oxoethyl)pyridine-1-ium bromide [Compound 6c]
IC50 [1]: 8.1 µM
IC90 [1]: 23 µM
MIC ([1]; oxygen-deprived bacteria, aerobic 5 d): 75 µM
IC50 ([2]; read-out: IC50 intracell): 7 µM
IC90 ([2]; read-out: IC90 intracell): 34 µM
IC50 ([3]; aerobic): 6.7 µM
IC90 ([3]; aerobic): 9.5 µM
MIC ([3]; repeated at lower starting concentrations, read-out: MIC aerobic condition): 9.5 µM
MIC [4]: 50 µM
IC50 [5]: 16 µM
IC90 [5]: 21 µM
IC50 [6]: 4.1 µM
IC50 [7, 9]: 12 µM
IC90 [7, 9]: 14 µM
MIC [7, 9]: 15 µM
MIC ([7]; MIC value taken from the first MIC assay): 15 µM

CC(=O)CC(c1ccccc1)c1c(O)c2ccccc2oc1=O (centres unmarked) [Warfarin]
recovery at 4 h, 5 µM [8]: 96.7%
